Measured values taken from patent US9060529B2, “Method for treatment of lacto-N-biose-containing solution” (Morinaga Milk Industry Co., Ltd., priority 2010, dated 2015).

How the values were obtained:
[1] = Examples 1-3: TLC analysis of heated liquid preparations containing LNB; type: physicochemical
Description: (§1) Each of the heated samples was cooled to 15° C., and 1 μL was then spotted onto a silica gel thin layer chromatography (TLC) plate. The plate was developed using an 80% acetonitrile solvent, and was then immersed in a 5% sulfuric acid solution and colorized by heating in an oven. The existence or absence of decomposed or denatured products (N-acetylglucosamine dehydrate and galactose) and the amount of those decomposed or denatured products were evaluated visually to determine whether or not decomposition had occurred, and if so, the extent of that decomposition.
100 g of the LNB powder prepared in the above Production Example 1 was dissolved in 9.9 kg of purified water, and 0.1 M hydrochloric acid was added to the solution to adjust the pH to 4.5. The resulting aqueous solution was preheated for 3 minutes at 70° C. using a UHT sterilizer (manufactured by Morinaga Engineering Co., Ltd.), subsequently sterilized at 130° C. for 2 seconds, and then cooled to 15° C., yielding 10 kg of a liquid preparation containing LNB.
100 g of the LNB powder prepared in the above Production Example 1 was added to 9.9 kg of a commercially available orange juice (manufactured by Morinaga Milk Industry Co., Ltd.), and the resulting mixture was heated at 80° C. for 15 minutes and then cooled to 15° C. 100 mL aliquots of the juice were used to fill glass bottles, which were then sealed, yielding 100 bottles of orange juice containing LNB.
100 g of the LNB powder prepared in the above Production Example 1 was dissolved in 9.9 kg of purified water, and 0.1 M citric acid was added to the solution to adjust the pH to 5.0. The resulting aqueous solution was heated at 90° C. for 30 minutes, and then cooled to 15° C., yielding 10 kg of a liquid preparation containing LNB.

[2] = Test Example 1: effect of pH on stability of LNB upon heating (2% LNB in buffer, TLC of decomposed products); type: physicochemical; settings: 90° C. for 60 minutes
Description: Samples of the LNB powder prepared in the above Production Example 1 were dissolved at a concentration of 2% (by mass, this also applies to all subsequent concentration values) in a 0.1 M citrate buffer solution (pH: 3.0 to 6.0), a 0.1 M phosphate buffer solution (pH: 6.0 to 8.0) or a 0.1 M glycine buffer solution (pH: 8.5 to 10.5), thus preparing samples (liquid compositions containing LNB) 1 to 16 having pH values at intervals of 0.5 across the entire pH range mentioned above.
A 5 mL sample of each of the prepared samples 1 to 16 was dispensed into a test tube and heated at 90° C. for 60 minutes.
as §1

decomposition of LNB (TLC) ([1]; Example 1: aqueous solution pH 4.5, 70° C. for 3 minutes, then 130° C. for 2 seconds): had not decomposed
decomposition of LNB (TLC) ([1]; Example 2: orange juice pH 4.51, 80° C. for 15 minutes): had not decomposed
decomposition of LNB (TLC) ([1]; Example 3: aqueous solution pH 5.0 (citric acid), 90° C. for 30 minutes): had not decomposed
SMILES: CC(=O)N[C@H]1C(O)O[C@H](CO)[C@@H](O)[C@@H]1O[C@@H]1O[C@H](CO)[C@H](O)[C@H](O)[C@H]1O (some centres unmarked) [LNB, Lacto-N-biose]
stability of the LNB upon heating (decomposition by TLC) ([2]; pH 5.5 or less, particularly 5.0 or less): stable and underwent almost no decomposition
stability of the LNB upon heating (decomposition by TLC) ([2]; pH 6.0 or higher, particularly 7.0 or higher): significant amounts of decomposed or denatured products were observed
